# Laboratory results published in patent US11660275B2, “Epilepsy treatment agent” (Eisai R&D Management Co., Ltd., priority 2018, dated 2023).
# Tests used:
# [1] = test system: mouse sound-induced convulsion model; test: Mouse sound-induced convulsion model (tonic convulsion, hindlimb extension); assay type: in vivo; settings: 0.5 h, DBA/2 JJcl mice, oral, sound stimulation 30 minutes after administration, % Tonic convulsion, regression analysis
# Description: A mouse sound-induced convulsion model test was carried out to confirm the suppressive effect on convulsions. Tonic convulsion induced by sound stimulation is used as the index for evaluation in this model (European Journal of Pharmacology, 222, p 193-203(1992)).
# Three-week-old male DBA/2 JJcl mice (Clea Japan, Inc.) were provided for the test (n=5 for each treatment, total 2 times). Tonic convulsion induced by sound stimulation was used as the indicator for evaluation (see aforementioned publication).
# Compound (Ia) and/or compound (11) was dissolved in a 0.4% methyl cellulose/5% cremophor/5% IN hydrochloric acid/10% dimethyl sulfoxide solution for an administered dose of 20 mL/kg each to prepare samples which were orally administered. A mixed solution without the compound (vehicle) was used as a negative control. Sound stimulation (11 kHz, 115 dB, duration: 30 sec) was carried out 30 minutes after administration of the samples, to induce convulsions. Immediately after cessation of the sound stimulation, tonic convulsion was evaluated by observing the presence or absence of hindlimb extension. […]
# mouse kindling models = settings: PTL 1; cited from earlier work
smiles,measurement,setting,value
"N#Cc1ccccc1-c1cc(-c2ccccn2)cn(-c2ccccc2)c1=O [compound (II), 3-(2-cyanophenyl)-5-(2-pyridyl)-1-phenyl-1,2-dihydropyridin-2-one, reference compound]",ED50,[1],0.33 mg/kg
"NS(=O)(=O)N[C@H]1c2c(F)cc(F)cc2CC1(F)F [compound (Ia), N-[(1S)-2,2,5,7-tetrafluoro-2,3-dihydro-1H-inden-1-yl]sulfamide]",effect on seizure severity (score),mouse kindling models,ameliorating effect
same,ED50,[1],53 mg/kg
"NS(=O)(=O)N[C@H]1c2c(F)ccc(F)c2CC1(F)F [compound (Ib), N-[(1S)-2,2,4,7-tetrafluoro-2,3-dihydro-1H-inden-1-yl]sulfamide]",effect on seizure severity (score),mouse kindling models,ameliorating effect
"NS(=O)(=O)N[C@H]1c2c(F)c(F)cc(F)c2CC1(F)F [compound (Ic), (+)-N-(2,2,4,6,7-pentafluoro-2,3-dihydro-1H-inden-1-yl)sulfamide]",effect on seizure severity (score),mouse kindling models,ameliorating effect
